# Experiments:
# [1] = 4-week toxicity study in rats; assay type: in vivo
# Method: (§1) Rapamycin or derivatives thereof are well tolerated at dosages required for use in accordance with the present invention. For example, the NTEL for Compound A in a 4-week toxicity study is 0.5 mg/kg/day in rats and 1.5 mg/kg/day in monkeys.
# [2] = 4-week toxicity study in monkeys; assay type: in vivo
# Method: as §1
structure (smiles),measurement,setting,value
"CO[C@H]1C[C@@H]2CC[C@@H](C)[C@@](O)(O2)C(=O)C(=O)N2CCCC[C@H]2C(=O)O[C@H]([C@H](C)C[C@@H]2CC[C@@H](OCCO)[C@H](OC)C2)CC(=O)[C@H](C)/C=C(\C)[C@@H](O)[C@@H](OC)C(=O)[C@H](C)C[C@H](C)/C=C/C=C/C=C/1C [Compound A, 40-0-(2-hydroxyethyl)-rapamycin]",NTEL,[1],0.5 mg/kg/day
same,NTEL,[2],1.5 mg/kg/day
